Our source for the IC50 and Ki values is ChEMBL document CHEMBL1909046, “DrugMatrix in vitro pharmacology data”.

Each structure is given as a SMILES string.

Test [1] is described as follows: DRUGMATRIX: Glutamate, Kainate radioligand binding (ligand: [3H] Kainic acid). The test is classed as cell membranes, Rattus norvegicus, Wistar, Brain, Membrane. To be noted: Not Active = under 50% inhibition at 10 µM.
Test [2] concerns the target 5-hydroxytryptamine receptor 6 (Homo sapiens, UniProt P50406). The test is classed as cell membranes, HeLa, Membrane. Further: in other assays of this panel Not Active means under 50% inhibition at 10 µM.
For test [3], the target named is T1, Polyunsaturated fatty acid lipoxygenase ALOX15 (Oryctolagus cuniculus, UniProt P12530).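 Further: inhibition of 15-lipoxygenase enzyme activity measured with linoleic acid as the substrate; in other assays of this panel Not Active means under 50% inhibition at 10 µM.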
T1 sequence (P12530 whole entry): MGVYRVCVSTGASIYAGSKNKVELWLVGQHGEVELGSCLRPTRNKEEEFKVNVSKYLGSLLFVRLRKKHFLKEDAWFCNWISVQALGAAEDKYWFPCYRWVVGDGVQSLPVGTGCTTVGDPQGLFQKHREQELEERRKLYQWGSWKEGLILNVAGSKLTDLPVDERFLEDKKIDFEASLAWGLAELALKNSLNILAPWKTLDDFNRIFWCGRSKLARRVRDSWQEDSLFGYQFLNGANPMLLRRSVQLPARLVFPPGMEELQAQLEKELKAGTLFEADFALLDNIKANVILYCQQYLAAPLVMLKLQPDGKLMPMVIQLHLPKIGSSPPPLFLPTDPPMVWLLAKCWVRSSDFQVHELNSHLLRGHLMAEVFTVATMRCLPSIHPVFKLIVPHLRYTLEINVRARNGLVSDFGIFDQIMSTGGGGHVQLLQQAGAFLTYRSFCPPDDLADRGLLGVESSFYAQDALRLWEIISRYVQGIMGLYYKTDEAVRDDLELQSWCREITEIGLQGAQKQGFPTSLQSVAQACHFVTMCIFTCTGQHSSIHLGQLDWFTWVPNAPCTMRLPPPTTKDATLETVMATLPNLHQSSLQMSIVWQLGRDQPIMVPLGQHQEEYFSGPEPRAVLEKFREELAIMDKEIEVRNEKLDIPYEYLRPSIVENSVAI
The test is described as follows: biochemical. The test is classed as tissue-based, Reticulocytes.

Test [4] has as its target Protein phosphatase 3 catalytic subunit alpha (Homo sapiens, UniProt Q08209). On the set-up: species or system Escherichia coli.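 Further: inhibition of calcineurin (PP2B) enzyme activity, measured with DiFMUP as the substrate; in other assays of this panel Not Active means under 50% inhibition at 10 µM.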
The target of test [5] is T2, Alpha-1A adrenergic receptor (Rattus norvegicus, UniProt P43140).
T2 sequence (P43140 whole entry): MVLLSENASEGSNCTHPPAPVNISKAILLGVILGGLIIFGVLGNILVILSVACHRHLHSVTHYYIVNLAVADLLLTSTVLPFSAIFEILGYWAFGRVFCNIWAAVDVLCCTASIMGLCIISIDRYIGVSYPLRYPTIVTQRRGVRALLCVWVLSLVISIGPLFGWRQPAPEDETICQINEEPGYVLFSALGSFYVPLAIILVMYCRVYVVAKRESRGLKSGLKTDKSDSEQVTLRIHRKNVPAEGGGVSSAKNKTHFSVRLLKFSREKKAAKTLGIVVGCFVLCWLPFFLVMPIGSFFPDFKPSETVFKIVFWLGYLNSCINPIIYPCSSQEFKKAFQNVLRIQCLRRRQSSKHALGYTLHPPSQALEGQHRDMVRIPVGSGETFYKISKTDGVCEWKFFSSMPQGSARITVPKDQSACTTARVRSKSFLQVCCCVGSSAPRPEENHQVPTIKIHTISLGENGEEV
Nature of the test: DRUGMATRIX: Alpha-1A adrenergic receptor radioligand binding (ligand: prazosin). To be noted: Not Active = under 50% inhibition at 10 µM; for Ki: read-out: Ki. The test is classed as cell membranes, Wistar, Submaxillary gland, Membrane.

The target in another test is Nitric oxide synthase 1 (Rattus norvegicus, UniProt P29476). The format is tissue-based, Cerebellum. Further: in other assays of this panel Not Active means under 50% inhibition at 10 µM.
Sequence of Nitric oxide synthase 1 (P29476 whole entry): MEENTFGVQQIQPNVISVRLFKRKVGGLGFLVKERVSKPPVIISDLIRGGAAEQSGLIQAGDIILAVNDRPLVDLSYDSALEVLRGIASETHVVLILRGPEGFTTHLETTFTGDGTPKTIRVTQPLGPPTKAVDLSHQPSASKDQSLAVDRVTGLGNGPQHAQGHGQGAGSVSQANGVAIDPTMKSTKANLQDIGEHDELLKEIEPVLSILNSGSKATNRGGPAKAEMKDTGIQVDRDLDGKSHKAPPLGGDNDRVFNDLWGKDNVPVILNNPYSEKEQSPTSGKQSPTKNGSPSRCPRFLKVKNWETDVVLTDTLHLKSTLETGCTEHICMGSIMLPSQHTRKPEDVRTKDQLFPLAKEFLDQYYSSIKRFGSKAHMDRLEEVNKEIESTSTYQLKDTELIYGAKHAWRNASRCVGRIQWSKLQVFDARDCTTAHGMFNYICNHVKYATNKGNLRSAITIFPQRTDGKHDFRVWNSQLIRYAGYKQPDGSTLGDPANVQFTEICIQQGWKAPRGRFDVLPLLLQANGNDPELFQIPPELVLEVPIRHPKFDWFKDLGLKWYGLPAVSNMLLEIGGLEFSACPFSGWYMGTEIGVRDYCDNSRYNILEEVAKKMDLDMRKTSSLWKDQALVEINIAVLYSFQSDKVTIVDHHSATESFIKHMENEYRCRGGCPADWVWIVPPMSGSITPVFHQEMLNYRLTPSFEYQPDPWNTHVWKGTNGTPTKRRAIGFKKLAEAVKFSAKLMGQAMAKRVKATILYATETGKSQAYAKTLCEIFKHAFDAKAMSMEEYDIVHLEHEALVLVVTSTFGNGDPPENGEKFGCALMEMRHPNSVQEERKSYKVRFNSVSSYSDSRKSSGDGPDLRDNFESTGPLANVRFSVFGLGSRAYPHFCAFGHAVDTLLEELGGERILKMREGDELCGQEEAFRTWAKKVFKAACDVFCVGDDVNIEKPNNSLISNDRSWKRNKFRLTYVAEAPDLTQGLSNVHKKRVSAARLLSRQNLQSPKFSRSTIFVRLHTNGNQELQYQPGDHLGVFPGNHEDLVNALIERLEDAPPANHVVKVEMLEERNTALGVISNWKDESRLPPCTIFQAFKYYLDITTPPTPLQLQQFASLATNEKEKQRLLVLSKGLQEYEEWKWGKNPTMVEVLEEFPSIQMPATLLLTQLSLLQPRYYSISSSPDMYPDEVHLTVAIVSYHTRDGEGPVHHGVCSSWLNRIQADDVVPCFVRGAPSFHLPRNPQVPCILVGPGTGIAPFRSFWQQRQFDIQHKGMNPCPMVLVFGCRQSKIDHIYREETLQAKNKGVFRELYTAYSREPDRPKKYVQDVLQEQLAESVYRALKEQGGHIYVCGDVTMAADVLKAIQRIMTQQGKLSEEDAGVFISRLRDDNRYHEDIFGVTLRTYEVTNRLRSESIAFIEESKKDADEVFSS

Sequence of 5-hydroxytryptamine receptor 6 (P50406 whole entry): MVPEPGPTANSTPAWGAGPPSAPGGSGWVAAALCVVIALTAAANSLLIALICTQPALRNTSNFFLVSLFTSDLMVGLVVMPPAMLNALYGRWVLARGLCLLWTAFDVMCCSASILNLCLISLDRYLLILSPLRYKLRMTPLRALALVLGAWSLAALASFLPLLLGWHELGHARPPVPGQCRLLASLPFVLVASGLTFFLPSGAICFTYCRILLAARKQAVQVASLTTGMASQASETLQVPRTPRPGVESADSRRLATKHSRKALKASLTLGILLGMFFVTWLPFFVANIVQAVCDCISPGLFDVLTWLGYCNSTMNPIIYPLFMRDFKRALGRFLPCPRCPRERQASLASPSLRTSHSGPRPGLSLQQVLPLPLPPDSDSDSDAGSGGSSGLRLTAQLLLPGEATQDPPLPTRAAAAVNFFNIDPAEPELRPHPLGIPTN

As usually defined, the IC50 is the point on the concentration scale where inhibition reaches its midpoint. A word on the Ki: it is a dissociation constant, usually derived from enzyme kinetics or from competition with a known ligand. Take `COc1cc(CNC(=O)CCCC/C=C/C(C)C)ccc1O` [CAPSAICIN]: the IC50 result (in test [1]; in test [2] (hela); in test [3] (reticulocytes); in test [4]; in test [5]; against Nitric oxide synthase 1) was “Not Active” in each case. Besides, the Ki entry in test [1] is “Not Active”.
Regarding `NC(=O)N1c2ccccc2C=Cc2ccccc21` [CARBAMAZEPINE], the IC50 result (in test [1]; in test [2] (hela); in test [3] (reticulocytes); in test [4]; in test [5]; against Nitric oxide synthase 1) was “Not Active” in each case. Further, in test [1], the Ki entry is reported as “Not Active”.
On to `CCOC(=O)n1ccn(C)c1=S` [CARBIMAZOLE], for which the 50% inhibitory concentration (IC50) entry (in test [1]; in test [2] (hela); in test [3] (reticulocytes); in test [4]; in test [5]; against Nitric oxide synthase 1) was “Not Active” throughout. Moreover, the Ki result in test [1] is “Not Active”.
`Oc1ccccc1O` [CATECHOL]: the half-maximal inhibitory concentration (IC50) result in test [1] was “Not Active”; in test [2] (hela), “Not Active”; in test [3] (read-out: IC50), 868 nM; in test [4] it was “Not Active”; in test [5], “Not Active”; on Nitric oxide synthase 1 it was “Not Active”. Further, in test [1], the inhibition constant Ki entry is reported as “Not Active”.
Turning to `CO[C@@]1(NC(=O)CSCC#N)C(=O)N2C(C(=O)O)=C(CSc3nnnn3C)CS[C@@H]21` [CEFMETAZOLE], the IC50 result (in test [1]; in test [2] (hela); in test [3] (reticulocytes); in test [4]; in test [5]; on Nitric oxide synthase 1) was “Not Active” throughout. The Ki entry in test [1] is given as “Not Active”.
For the molecule `CN(C(=O)CCCOc1ccc2[nH]c(=O)ccc2c1)C1CCCCC1` [CILOSTAMIDE], the 50% inhibitory concentration (IC50) result (in test [1]; in test [2] (hela); in test [3] (reticulocytes); in test [4]; in test [5]; against Nitric oxide synthase 1) was “Not Active” each time. In test [1], the Ki entry was “Not Active”.
For `CC(C)(Oc1ccc(C2CC2(Cl)Cl)cc1)C(=O)O` (stereo not given) [CIPROFIBRATE], the IC50 entry (in test [1]; in test [2] (hela); in test [3] (reticulocytes); in test [4]; in test [5]; against Nitric oxide synthase 1) was “Not Active” in each case. The Ki entry in test [1] was “Not Active”.
Regarding `Nc1nc(Cl)nc2c1ncn2[C@H]1C[C@H](O)[C@@H](CO)O1` [CLADRIBINE], the IC50 entry (in test [1]; in test [2] (hela); in test [3] (reticulocytes); in test [4]; in test [5]; against Nitric oxide synthase 1) was “Not Active” throughout. In addition, the Ki entry in test [1] was “Not Active”.
For the molecule `CC[C@H]1OC(=O)[C@H](C)[C@@H](O[C@H]2C[C@@](C)(OC)[C@@H](O)[C@H](C)O2)[C@H](C)[C@@H](O[C@@H]2O[C@H](C)C[C@H](N(C)C)[C@H]2O)[C@](C)(OC)C[C@@H](C)C(=O)[C@H](C)[C@@H](O)[C@]1(C)O` [CLARITHROMYCIN], the IC50 entry (in test [1]; in test [2] (hela); in test [3] (reticulocytes); in test [4]; in test [5]; on Nitric oxide synthase 1) was “Not Active” throughout. Moreover, the Ki entry in test [1] is given as “Not Active”.
For `CCC[C@@H]1C[C@@H](C(=O)N[C@@H]([C@H]2O[C@H](SC)[C@H](O)[C@@H](O)[C@H]2O)[C@H](C)Cl)N(C)C1` [CLINDAMYCIN], the IC50 entry (in test [1]; in test [2] (hela); in test [3] (reticulocytes); in test [4]; in test [5]; against Nitric oxide synthase 1) was “Not Active” each time. Besides, in test [1], the Ki entry is listed as “Not Active”.
Take `O=C(O)c1cc(=O)c2c(OCC(O)COc3cccc4oc(C(=O)O)cc(=O)c34)cccc2o1` [CROMOLYN]: the concentration for half-maximal inhibition (IC50) result (in test [1]; in test [2] (hela); in test [3] (reticulocytes); in test [4]; in test [5]; on Nitric oxide synthase 1) was “Not Active” throughout. The Ki result in test [1] was “Not Active”.
For `O=P1(N(CCCl)CCCl)NCCCO1` (stereo not given) [CYCLOPHOSPHAMIDE ANHYDROUS], the IC50 entry (in test [1]; in test [2] (hela); in test [3] (reticulocytes); in test [4]; in test [5]; at Nitric oxide synthase 1) was “Not Active” in each case. Also, the Ki result in test [1] was “Not Active”.
Regarding `CC(=O)O[C@]1(C(C)=O)CC[C@H]2[C@@H]3C=C(Cl)C4=CC(=O)[C@@H]5C[C@@H]5[C@]4(C)[C@H]3CC[C@@]21C` [CYPROTERONE ACETATE], the 50% inhibitory concentration (IC50) entry (in test [1]; in test [2] (hela); in test [3] (reticulocytes); in test [4]; in test [5]; against Nitric oxide synthase 1) was “Not Active” each time. Also, the Ki entry in test [1] is recorded as “Not Active”.
Turning to `Nc1nc(N)nc(NC2CC2)n1` [CYROMAZINE], the IC50 entry (in test [1]; in test [2] (hela); in test [3] (reticulocytes); in test [4]; in test [5]; against Nitric oxide synthase 1) was “Not Active” in each case. The inhibition constant Ki entry in test [1] is on record as “Not Active”.
With `C#C[C@]1(O)CC[C@H]2[C@@H]3CCC4=Cc5oncc5C[C@]4(C)[C@H]3CC[C@@]21C` [DANAZOL], the IC50 result (in test [1]; in test [2] (hela); in test [3] (reticulocytes); in test [4]; in test [5]; at Nitric oxide synthase 1) was “Not Active” in each case. Moreover, the inhibition constant Ki entry in test [1] is recorded as “Not Active”.
On to `CCN[C@@H](C)Cc1cccc(C(F)(F)F)c1` [DEXFENFLURAMINE], for which the IC50 result (in test [1]; in test [2] (hela); in test [3] (reticulocytes); in test [4]; in test [5]; on Nitric oxide synthase 1) was “Not Active” each time. The Ki entry in test [1] is “Not Active”.
For `C[C@H](C(=O)O)c1cccc(C(=O)c2ccccc2)c1` [DEXKETOPROFEN], the IC50 entry (in test [1]; in test [2] (hela); in test [3] (reticulocytes); in test [4]; in test [5]; on Nitric oxide synthase 1) was “Not Active” in each case. Further, the Ki entry in test [1] is “Not Active”.
With `CN1C(=O)CN=C(c2ccccc2)c2cc(Cl)ccc21` [DIAZEPAM], the IC50 result (in test [1]; in test [2] (hela); in test [3] (reticulocytes); in test [4]; in test [5]; against Nitric oxide synthase 1) was “Not Active” each time. In addition, the Ki entry in test [1] is recorded as “Not Active”.
On to `CN1C[C@H](C(=O)N[C@]2(C)O[C@@]3(O)[C@@H]4CCCN4C(=O)[C@H](Cc4ccccc4)N3C2=O)C[C@@H]2c3cccc4[nH]cc(c34)C[C@H]21` [DIHYDROERGOTAMINE], for which the IC50 entry is “Not Active” in test [1]; 3.2 nM in test [2] (read-out: IC50); “Not Active” in test [3] (reticulocytes); “Not Active” in test [4]; 5.03 nM in test [5] (read-out: IC50); “Not Active” against Nitric oxide synthase 1. In addition, the Ki entry was “Not Active” in test [1], 1.49 nM in test [2] (read-out: Ki) and 2.03 nM in test [5].
For the molecule `Cc1c(N(C)CS(=O)(=O)[O-])c(=O)n(-c2ccccc2)n1C.[Na+]` [DIPYRONE SODIUM], the IC50 result (in test [1]; in test [2] (hela); in test [3] (reticulocytes); in test [4]; in test [5]; against Nitric oxide synthase 1) was “Not Active” each time. For the same molecule, in test [1], the inhibition constant Ki result is reported as “Not Active”.
In the case of `CC(CCc1ccc(O)cc1)NCCc1ccc(O)c(O)c1` (stereo not given) [DOBUTAMINE], the IC50 result in test [1] was “Not Active”; in test [2] (hela), “Not Active”; in test [3] (read-out: IC50) it was 599 nM; in test [4], “Not Active”; in test [5] (read-out: IC50), 110 nM; at Nitric oxide synthase 1, “Not Active”. The values for the Ki result in test [1] and in test [5] were “Not Active” and 45 nM, respectively.
